Here are results for two compounds from article PMC10291556 (Journal of Medicinal Chemistry, 2023).

Each structure is given as a SMILES string.

In data set [1] the test system is HeLa cells. Put plainly: Mitochondrial membrane potential (TMRE, flow cytometry). In kind it is cell-based, human. Conditions: 10× IC50, 1 h, vs untreated control. Here is the method:
Figure 4 Changes in the mitochondrial membrane potential Δψm in HeLa cells. The cells were treated with Pt compounds at the concentrations corresponding to 10× IC50 for 1 h and subsequently stained with TMRE. The fluorescence was measured by flow cytometry. Data represents mean ± SD from three independent experiments, *p < 0.01.
HeLa cells were seeded (6-well plates, 3 × 10^5 cells/well), grown overnight, and then treated with the tested compounds for 1 h. The medium was removed, and a fresh medium containing TMRE (Thermo Fisher Scientific) at a final concentration of […] in 500 μL was added. The cells were incubated for 30 min at 37 °C and then harvested using trypsin. TMRE fluorescence was measured with a fluorescence-activated cell sorting (FACS) Verse flow cytometer (Becton Dickinson), and the data were analyzed using the ModFit LT 4.1 (Verity Software House) software. The experiment was performed in triplicate.
On the technique in general: In flow cytometry, cells or beads pass a laser one at a time.

The test system of data set [2] is DNA isolated from HeLa cells. Put plainly: Pt associated with DNA isolated from treated HeLa cells. The class given is cell-based, human. Conditions: 1 µM compound, 6 h, mean ± SD. From the text:
page 16: Table S1: […] concentration of tested compounds for 6 ha. […] Figure S19: A. Representative histograms obtained by flow cytometric analysis of calreticulin exposure in HeLa cells treated with indicated compounds. B. An example of gating DAPI negative population. Only DAPI-negative cells were taken for the evaluation.

The test system of data set [3] is HeLa cells. Put plainly: Glucose consumption. Conditions: 24 h, IC50 concentrations. In kind it is cell-based, human. On the procedure: Figure 3 (A) Lactate production. Relative lactate concentration in medium following a 6 h treatment of HeLa cells with the investigated compounds at concentrations corresponding to 5× IC50. […] Data represents mean ± SD, n = 2–4; asterisks indicate a statistically significant difference from the untreated control (*p < 0.01, **p < 0.005, ***, ***p < 0.001).
Glucose concentration in the culture medium prior to and after the treatment was determined with an Amplex Red Glucose/Glucose Oxidase Assay Kit (Invitrogen) following the producer’s protocol. Glucose consumption was normalized to final cell counts. The glucose amount consumed by the non-treated control was taken at 100%.

Data set [4] is described as follows: Partition coefficient, shake-flask method. The class given is physicochemical. Conditions: octanol/water. Here is the method:
The “shake flask” method was used to measure the partition coefficients (P) of platinum compounds. The compounds were dissolved in octanol-saturated water (OSW) containing 200 mM NaCl. […] After careful separation of the layers with a fine-tip pipet, the Pt content in individual phases was determined by flameless atomic absorption spectrometry. The partition coefficients were calculated as the concentration ratio of the compound in the octanol layer to that in the aqueous layer, log P = log([Pt]WSO/[Pt]OSW).

The test system of data set [5] is HeLa cells. Put plainly: Lactate production. The class given is cell-based, human. Conditions: 6 h, 5× IC50, free DCF at concentrations 380–770 times higher.
Procedure: HeLa cells were seeded (1 × 10^5 cells/well) and grown in 12-well plates, treated with platinum agents, and diclofenac for 6 h. Lactate concentration in the culture medium was measured using a colorimetric Lactate Assay Kit (Sigma-Aldrich) following the manufacturer’s instructions. […] The amount of lactate in individual samples was determined from a standard curve and expressed as a percentage of non-treated control.
In a further data set the test system is tubulin in HeLa cells. Put plainly: Western blotting of tubulin. The class given is cell-based, human. Conditions: 24 h, 0.25× or 0.5× IC50,72h, Western blot. On the procedure:
Figure 2 Western blotting analyses of tubulin in protein extract from HeLa cells treated with the investigated Pt complexes. (A) Representative membranes. […] Proteins from control, untreated cells were loaded to lane C. (B) Quantitative data evaluation; bars represent mean ± SD from two independent experiments.
HeLa cells were seeded in 60 mm dishes at a density of 3 × 10^5 cells/dish and cultured for 20 h. The cells were then treated with the tested compounds at concentrations indicated in the text. After 24 h of treatment, the cells were scraped, washed, and pelleted. […] After transferring to the polyvinylidene fluoride membrane, the proteins were detected using appropriate antibodies: anti-GAPDH antibody (mouse, Sigma-Aldrich), Anti-COX-2 (rabbit, Abcam), Anti-α-, β-, or γ-tubulin (all rabbit, Abcam), Anti-β-actin (mouse, Abcam), Goat Anti-Rabbit IgG(HRP) (Abcam; HRP = horseradish peroxidase), and Goat Anti-Mouse IgG(HRP) (ThermoFisher Scientific). SignalFire ECL Reagent (A + B) was used as a substrate for HRP, and the luminescence was recorded with Amersham Imager 680. The densities in the images were assessed with the Aida image analysis software.
A general note: A western blot detects proteins with antibodies after separation by electrophoresis.

The subject of the next data set is COX-2 in HeLa cells. Description: Western blotting of COX-2. The class given is cell-based, human. Conditions: 24 h, 1×, 3× IC50, Western blot. Here is the method: (B) Quantitative evaluation of Western blotting data; the relative expression of COX-2 normalized to GAPDH. Data represents the mean ± SD of two experiments. The stars indicate the statistical significance of difference vs control determined with the Student t-test (*p < 0.05, **p < 0.01, ***p < 0.001).
HeLa cells were seeded in 60 mm dishes at a density of 3 × 10^5 cells/dish and cultured for 20 h. The cells were then treated with the tested compounds at concentrations indicated in the text. After 24 h of treatment, the cells were scraped, washed, and pelleted. […] 4–20% SDS-PAGE (sodium dodecyl sulfate-polyacrylamide gel electrophoresis) (Mini-PROTEAN TGX Precast Gel) was used to resolve the proteins. After transferring to the polyvinylidene fluoride membrane, the proteins were detected using appropriate antibodies: anti-GAPDH antibody (mouse, Sigma-Aldrich), Anti-COX-2 (rabbit, Abcam), Anti-α-, β-, or γ-tubulin (all rabbit, Abcam), Anti-β-actin (mouse, Abcam), Goat Anti-Rabbit IgG(HRP) (Abcam; HRP = horseradish peroxidase), and Goat Anti-Mouse IgG(HRP) (ThermoFisher Scientific). SignalFire ECL Reagent (A + B) was used as a substrate for HRP, and the luminescence was recorded with Amersham Imager 680. The densities in the images were assessed with the Aida image analysis software.

Take `Cc1c(C)c2c3c4c1=CC=C[N]4[Pt]([Cl])[N]3C=CC=2.NCCNC(=O)Cc1ccccc1Nc1c(Cl)cccc1Cl.N[C@H]1CCCC[C@@H]1N` [complex 3, Pt(IV)56MESSenDCFCl]: the “mitochondrial membrane potential Δψm (TMRE fluorescence)” value in the data set with HeLa cells [1] is given as “significant (p < 0.01) decrease in TMRE fluorescence”. In data set [2], the “amount of Pt associated with DNA” value was determined as 2.3 ± 0.2 pg Pt/µg DNA. In the data set on HeLa cells [3], the glucose consumption result is “reduction in glucose consumption”. Further, the “log P” value in data set [4] is listed as “–1.7 ± 0.1”. Also, the “lactate excreted into media” value in the data set with HeLa cells [5] was “considerably reduced”. Further, in the data set with tubulin in HeLa cells, the “reduction of the amount of tubulin in cell extracts” value was “higher potency of the two complexes to reduce the amount of tubulin”. Moreover, the “intracellular level of COX-2 protein” value in the data set on COX-2 in HeLa cells is listed as “able to reduce the intracellular level of COX-2 protein”.

`Cc1c(C)c2c3c4c1=CC=C[N]4[Pt][N]3C=CC=2.NCCNC(=O)Cc1ccccc1Nc1c(Cl)cccc1Cl.NCCNC(=O)Cc1ccccc1Nc1c(Cl)cccc1Cl.N[C@H]1CCCC[C@@H]1N` [complex 4, Pt^IV56MeSS(DCF)2]: in the data set on HeLa cells [1], the “mitochondrial membrane potential Δψm (TMRE fluorescence)” value is listed as “significant (p < 0.01) decrease in TMRE fluorescence”. The “amount of Pt associated with DNA” value in data set [2] is recorded as 4.6 ± 0.3 pg Pt/µg DNA. The glucose consumption result in the data set with HeLa cells [3] is recorded as “reduction in glucose consumption”. Moreover, the “log P” value in data set [4] is listed as “–1.4 ± 0.1”. Besides, the “lactate excreted into media” value in the data set with HeLa cells [5] was “considerably reduced”. Moreover, the “reduction of the amount of tubulin in cell extracts” value in the data set on tubulin in HeLa cells was “higher potency of the two complexes to reduce the amount of tubulin”. Moreover, the “intracellular level of COX-2 protein” value in the data set on COX-2 in HeLa cells is listed as “able to reduce the intracellular level of COX-2 protein”.
